Test results published in publication PMC3025903 (Molecular Pain, 2010).

Columns and labels:
Sprague-Dawley rats [1] = settings: rat, in vivo, iv; SEM
Sprague-Dawley rats [2] = settings: rat, in vivo, iv
[3] = target: T1, human N-type Ca^2+ channels stably expressed in HEK293 cells (C2D7 cells) (Homo sapiens, UniProt Q00975); experiment: cell-based
T1 construct: expressed in transfected cells
T1 sequence (Q00975 whole entry, looked up): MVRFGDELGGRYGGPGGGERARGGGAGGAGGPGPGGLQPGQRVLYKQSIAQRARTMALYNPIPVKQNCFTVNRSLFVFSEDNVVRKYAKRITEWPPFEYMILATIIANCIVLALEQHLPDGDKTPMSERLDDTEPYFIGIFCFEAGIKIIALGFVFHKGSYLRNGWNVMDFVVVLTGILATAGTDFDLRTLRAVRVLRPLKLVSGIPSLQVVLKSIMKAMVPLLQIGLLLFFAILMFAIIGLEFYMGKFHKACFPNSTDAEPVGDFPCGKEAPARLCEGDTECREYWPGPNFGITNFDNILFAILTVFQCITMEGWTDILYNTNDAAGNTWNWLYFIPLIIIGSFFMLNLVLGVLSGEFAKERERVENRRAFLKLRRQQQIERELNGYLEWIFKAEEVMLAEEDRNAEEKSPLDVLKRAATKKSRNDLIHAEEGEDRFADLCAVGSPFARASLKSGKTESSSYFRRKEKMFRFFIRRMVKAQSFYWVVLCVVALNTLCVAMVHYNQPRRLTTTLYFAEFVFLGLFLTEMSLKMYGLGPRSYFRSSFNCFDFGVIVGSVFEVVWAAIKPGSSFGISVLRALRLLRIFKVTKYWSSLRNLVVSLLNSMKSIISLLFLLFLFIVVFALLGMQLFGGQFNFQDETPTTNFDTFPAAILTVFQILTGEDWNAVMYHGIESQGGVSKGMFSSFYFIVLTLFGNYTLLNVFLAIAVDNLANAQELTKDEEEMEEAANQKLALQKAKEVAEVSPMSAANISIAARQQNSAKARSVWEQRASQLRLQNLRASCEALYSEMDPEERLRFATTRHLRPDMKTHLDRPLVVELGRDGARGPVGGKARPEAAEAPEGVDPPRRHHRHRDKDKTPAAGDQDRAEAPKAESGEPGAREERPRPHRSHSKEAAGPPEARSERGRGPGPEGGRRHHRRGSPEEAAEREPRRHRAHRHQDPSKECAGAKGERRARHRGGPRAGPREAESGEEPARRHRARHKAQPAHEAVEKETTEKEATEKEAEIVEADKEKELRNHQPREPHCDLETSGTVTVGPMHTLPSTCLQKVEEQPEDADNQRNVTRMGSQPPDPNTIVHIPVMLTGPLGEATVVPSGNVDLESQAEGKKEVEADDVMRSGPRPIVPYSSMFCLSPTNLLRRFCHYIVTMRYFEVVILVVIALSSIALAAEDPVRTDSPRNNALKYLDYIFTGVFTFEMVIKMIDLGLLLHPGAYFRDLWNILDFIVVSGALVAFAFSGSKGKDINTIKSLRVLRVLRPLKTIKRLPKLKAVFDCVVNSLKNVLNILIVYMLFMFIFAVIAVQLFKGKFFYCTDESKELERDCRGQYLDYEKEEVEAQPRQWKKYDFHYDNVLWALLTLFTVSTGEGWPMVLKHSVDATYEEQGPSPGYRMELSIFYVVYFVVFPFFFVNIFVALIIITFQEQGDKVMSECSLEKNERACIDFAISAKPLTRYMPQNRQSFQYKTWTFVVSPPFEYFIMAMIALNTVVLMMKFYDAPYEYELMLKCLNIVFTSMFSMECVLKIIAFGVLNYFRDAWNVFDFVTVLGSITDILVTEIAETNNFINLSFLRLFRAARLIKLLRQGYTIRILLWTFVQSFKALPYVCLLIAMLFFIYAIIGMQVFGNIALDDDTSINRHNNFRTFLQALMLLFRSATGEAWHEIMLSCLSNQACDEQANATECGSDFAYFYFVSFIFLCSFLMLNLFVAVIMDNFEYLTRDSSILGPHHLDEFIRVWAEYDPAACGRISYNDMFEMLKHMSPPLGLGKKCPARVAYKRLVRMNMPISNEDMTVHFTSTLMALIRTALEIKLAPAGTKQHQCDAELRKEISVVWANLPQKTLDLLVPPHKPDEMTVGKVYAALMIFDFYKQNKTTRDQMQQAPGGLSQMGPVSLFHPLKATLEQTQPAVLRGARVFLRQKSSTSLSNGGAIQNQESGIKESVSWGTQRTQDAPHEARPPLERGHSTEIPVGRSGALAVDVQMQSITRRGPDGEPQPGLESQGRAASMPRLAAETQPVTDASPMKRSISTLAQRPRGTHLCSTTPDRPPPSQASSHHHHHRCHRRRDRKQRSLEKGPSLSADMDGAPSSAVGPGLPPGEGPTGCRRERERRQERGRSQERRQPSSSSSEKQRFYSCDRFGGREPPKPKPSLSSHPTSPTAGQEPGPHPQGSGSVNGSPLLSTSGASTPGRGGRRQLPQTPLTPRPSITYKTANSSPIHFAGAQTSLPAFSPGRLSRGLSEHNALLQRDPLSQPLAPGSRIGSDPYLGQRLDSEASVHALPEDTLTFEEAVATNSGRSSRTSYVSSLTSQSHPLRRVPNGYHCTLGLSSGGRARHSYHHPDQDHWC

## CSCC[C@@H]1NC(=O)[C@H](CC(C)C)NC(=O)[C@H](CCCNC(=N)N)NC(=O)[C@H](CO)NC(=O)[C@@H]2CSSC[C@@H]3NC(=O)[C@H](CO)NC(=O)CNC(=O)[C@H]([C@@H](C)O)NC(=O)[C@H](CSSC[C@H](N)C(=O)N[C@@H](CCCCN)C(=O)NCC(=O)N[C@@H](CCCCN)C(=O)NCC(=O)N[C@@H](C)C(=O)N[C@@H](CCCCN)C(=O)N2)NC(=O)[C@H](CSSC[C@@H](C(N)=O)NC(=O)[C@H](CCCCN)NC(=O)CNC(=O)[C@H](CO)NC(=O)[C@H](CCCNC(=N)N)NC3=O)NC(=O)[C@H](CC(=O)O)NC(=O)[C@H](Cc2ccc(O)cc2)NC1=O [CTx-MVIIA, ω-Conotoxin (CTx)-MVIIA, reference compound]
Sprague-Dawley rats [1]
  mean arterial pressure after 60 min: 65.3 ± 1.9 mmHg
  mean arterial pressure within 3 min after injection: 57.3 ± 3.1 mmHg
Sprague-Dawley rats [2]
  mean blood pressure 5 min after administration: 77.5 ± 1.7 mmHg
  mean blood pressure after 5 h: 87.4 ± 2.6 mmHg
[3]
  block of N-type Ca2+ currents: 87.5 ± 1.9%
  steady-state level to which the currents recovered after washout: 19.8 ± 3.8%

## CC[C@H](C)[C@@H]1NC(=O)[C@H](CCCNC(=N)N)NC(=O)[C@H](CO)NC(=O)[C@@H]2CSSC[C@@H]3NC(=O)[C@H](CO)NC(=O)CNC(=O)[C@H]([C@@H](C)O)NC(=O)[C@H](CSSC[C@H](N)C(=O)N[C@@H](CCCCN)C(=O)NCC(=O)N[C@@H]([C@@H](C)O)C(=O)NCC(=O)N[C@@H](CCCCN)C(=O)N[C@@H](CO)C(=O)N2)NC(=O)[C@H](CSSC[C@@H](C(N)=O)NC(=O)[C@H](CCCCN)NC(=O)CNC(=O)[C@H](CO)NC(=O)[C@H](CCCNC(=N)N)NC3=O)NC(=O)[C@H](CC(N)=O)NC(=O)[C@H](Cc2ccc(O)cc2)NC(=O)[C@H](C)NC1=O [CTx-FVIA, ω-conotoxin FVIA]
Sprague-Dawley rats [1]
  mean arterial pressure after 60 min: 79.7 ± 4.1 mmHg
  mean arterial pressure within 3 min after injection: 56.4 ± 1.0 mmHg
Sprague-Dawley rats [2]
  mean blood pressure 5 min after administration: 78.9 ± 3.1 mmHg
  mean blood pressure after 5 h: nearly recovered
[3]
  IC50: 11.5 ± 1.4 nM
  block of N-type Ca2+ currents: 91.25 ± 1.8%
  steady-state level to which the currents recovered after washout: 78.4 ± 5.8%
